Measured values as given in PubChem BioAssay AID1919009 (Molecular Pharmacology Branch, DTP, NCI, 2023).

System: K24384-001-R-PDC complex spheroid growth
Assay: Anticancer human tumor K24384-001-R-PDC patient-derived pancreatic adenocarcinoma cell line growth inhibition [AhR]
Conditions: for IC50: curve of first compound; for viability, T/C: stronger effect = lower value; active means viability on the fitted dose curve at most 10% of control; inactive means the rest
Outline: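 Complex tumor spheroids co-cultured with HUVEC and human MSC stroma; AhR antagonists tested in combination with standard-of-care and investigational agents. Top concentration at or near clinical Cmax (else 10 microM), half-log dilutions; growth expressed as percent test/control.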

[1] = second compound 0.1 µM, first compound 0.0316 µM
[2] = second compound 0.1 µM, first compound 0.1 µM
[3] = second compound 0.1 µM, first compound 0.316 µM
[4] = second compound 0.1 µM, first compound 1 µM
[5] = second compound 0.316 µM, first compound 0.0316 µM
[6] = second compound 0.316 µM, first compound 0.1 µM
[7] = second compound 0.316 µM, first compound 0.316 µM
[8] = second compound 0.316 µM, first compound 1 µM
[9] = second compound 1 µM, first compound 0.0316 µM
[10] = second compound 1 µM, first compound 0.1 µM
[11] = second compound 1 µM, first compound 0.316 µM
[12] = second compound 1 µM, first compound 1 µM
[13] = second compound 3.16 µM, first compound 0.0316 µM
[14] = second compound 3.16 µM, first compound 0.1 µM
[15] = second compound 3.16 µM, first compound 0.316 µM
[16] = second compound 3.16 µM, first compound 1 µM
[17] = second compound 10 µM, first compound 0.0316 µM
[18] = second compound 10 µM, first compound 0.1 µM
[19] = second compound 10 µM, first compound 0.316 µM
[20] = second compound 10 µM, first compound 1 µM
[21] = second compound 0.1 µM, first compound 3.16 µM
[22] = second compound 0.1 µM, first compound 10 µM
[23] = second compound 0.316 µM, first compound 3.16 µM
[24] = second compound 0.316 µM, first compound 10 µM
[25] = second compound 1 µM, first compound 3.16 µM
[26] = second compound 1 µM, first compound 10 µM
[27] = second compound 3.16 µM, first compound 3.16 µM
[28] = second compound 3.16 µM, first compound 10 µM
[29] = second compound 10 µM, first compound 3.16 µM
[30] = second compound 10 µM, first compound 10 µM
[31] = second compound 0.1 µM, first compound 0.00949 µM
[32] = second compound 0.1 µM, first compound 0.03 µM
[33] = second compound 0.1 µM, first compound 0.0949 µM
[34] = second compound 0.1 µM, first compound 0.3 µM
[35] = second compound 0.316 µM, first compound 0.00949 µM
[36] = second compound 0.316 µM, first compound 0.03 µM
[37] = second compound 0.316 µM, first compound 0.0949 µM
[38] = second compound 0.316 µM, first compound 0.3 µM
[39] = second compound 1 µM, first compound 0.00949 µM
[40] = second compound 1 µM, first compound 0.03 µM
[41] = second compound 1 µM, first compound 0.0949 µM
[42] = second compound 1 µM, first compound 0.3 µM
[43] = second compound 3.16 µM, first compound 0.00949 µM
[44] = second compound 3.16 µM, first compound 0.03 µM
[45] = second compound 3.16 µM, first compound 0.0949 µM
[46] = second compound 3.16 µM, first compound 0.3 µM
[47] = second compound 10 µM, first compound 0.00949 µM
[48] = second compound 10 µM, first compound 0.03 µM
[49] = second compound 10 µM, first compound 0.0949 µM
[50] = second compound 10 µM, first compound 0.3 µM
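Wherever viability, T/C is given: percent of DMSO vehicle-treated spheroid viability set as 100%.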

CC1COCCN1c1cc(-c2ccnn2C)c2ccnc(-c3ccn[nH]3)c2n1 (stereo not given) + Cc1cncc(-c2nc(NCCc3c[nH]c4ccccc34)c3ncn(C(C)C)c3n2)c1
73.9 nM: IC50 (second compound 0.1 µM)
active: viability, T/C (second compound 10 µM, first compound 0.00316 µM) 7.24% | viability, T/C (second compound 10 µM, first compound 0.01 µM) 7.46% | viability, T/C [17] 8.32% | viability, T/C [18] 5.4% | viability, T/C [19] 4.59% | viability, T/C [20] 6.27%
93.3 nM: IC50 (second compound 0.316 µM)
90.5 nM: IC50 (second compound 1 µM)
< 3.16 nM: IC50 (second compound 10 µM)
inactive: viability, T/C (second compound 0.1 µM, first compound 0.00316 µM) 88.3% | viability, T/C (second compound 0.1 µM, first compound 0.01 µM) 81.3% | viability, T/C [1] 65.3% | viability, T/C [2] 46.1% | viability, T/C [3] 25.7% | viability, T/C [4] 22.2% | viability, T/C (second compound 0.316 µM, first compound 0.00316 µM) 95.6% | viability, T/C (second compound 0.316 µM, first compound 0.01 µM) 95.8% | viability, T/C [5] 89.1% | viability, T/C [6] 46.4% | viability, T/C [7] 31.8% | viability, T/C [8] 20.5% | viability, T/C (second compound 1 µM, first compound 0.00316 µM) 94.5% | viability, T/C (second compound 1 µM, first compound 0.01 µM) 104% | viability, T/C [9] 87.3% | viability, T/C [10] 46.9% | viability, T/C [11] 24.8% | viability, T/C [12] 24.6% | viability, T/C (second compound 3.16 µM, first compound 0.00316 µM) 73% | viability, T/C (second compound 3.16 µM, first compound 0.01 µM) 88.3% | viability, T/C [13] 69% | viability, T/C [14] 30.1% | viability, T/C [15] 27.3% | viability, T/C [16] 27.7%
55.2 nM: IC50 (second compound 3.16 µM)

CC1COCCN1c1cc(C2(S(C)(=N)=O)CC2)nc(-c2ccnc3[nH]ccc23)n1 (stereo not given) + Cc1cncc(-c2nc(NCCc3c[nH]c4ccccc34)c3ncn(C(C)C)c3n2)c1
1270 nM: IC50 (second compound 3.16 µM)
inactive: viability, T/C [1] 97.7% | viability, T/C [2] 105% | viability, T/C [3] 105% | viability, T/C [4] 84.1% | viability, T/C [21] 51.2% | viability, T/C [22] 32.2% | viability, T/C [5] 94.7% | viability, T/C [6] 102% | viability, T/C [7] 96.3% | viability, T/C [8] 87.3% | viability, T/C [23] 58.8% | viability, T/C [24] 29.1% | viability, T/C [9] 116% | viability, T/C [10] 113% | viability, T/C [11] 118% | viability, T/C [12] 95% | viability, T/C [25] 61.1% | viability, T/C [26] 31.1% | viability, T/C [13] 80.6% | viability, T/C [14] 74.8% | viability, T/C [15] 70% | viability, T/C [16] 52% | viability, T/C [27] 37.8% | viability, T/C [28] 25.9% | viability, T/C [17] 10.3% | viability, T/C [18] 11.3% | viability, T/C [19] 11.8% | viability, T/C [20] 11.8% | viability, T/C [29] 8.29% | viability, T/C [30] 10.9%
3220 nM: IC50 (second compound 0.1 µM)
4740 nM: IC50 (second compound 1 µM)
< 31.6 nM: IC50 (second compound 10 µM)
4430 nM: IC50 (second compound 0.316 µM)

COc1ccc([C@@H](O)c2cc(-c3ncnc4cc(N5CCOCC5)ccc34)c(F)cc2Cl)nn1 + Cc1cncc(-c2nc(NCCc3c[nH]c4ccccc34)c3ncn(C(C)C)c3n2)c1
active: viability, T/C [17] 9.83% | viability, T/C [18] 8.38% | viability, T/C [19] 6.49% | viability, T/C [20] 8.45% | viability, T/C [29] 9.55% | viability, T/C [30] 13.7%
inactive: viability, T/C [1] 88% | viability, T/C [2] 93.3% | viability, T/C [3] 93.2% | viability, T/C [4] 68.5% | viability, T/C [21] 57.8% | viability, T/C [22] 38.4% | viability, T/C [5] 109% | viability, T/C [6] 106% | viability, T/C [7] 86.2% | viability, T/C [8] 68.4% | viability, T/C [23] 48% | viability, T/C [24] 36.6% | viability, T/C [9] 84.1% | viability, T/C [10] 94.5% | viability, T/C [11] 118% | viability, T/C [12] 96.7% | viability, T/C [25] 44.9% | viability, T/C [26] 33.9% | viability, T/C [13] 76.8% | viability, T/C [14] 98.2% | viability, T/C [15] 71.1% | viability, T/C [16] 54.7% | viability, T/C [27] 50.7% | viability, T/C [28] 31.9%
< 31.6 nM: IC50 (second compound 10 µM)
4410 nM: IC50 (second compound 0.1 µM)
1940 nM: IC50 (second compound 3.16 µM)
2820 nM: IC50 (second compound 0.316 µM) | IC50 (second compound 1 µM)

Nc1ncn(C2CC(O)C(CO)S2)c(=O)n1 (stereo not given) + Cc1cncc(-c2nc(NCCc3c[nH]c4ccccc34)c3ncn(C(C)C)c3n2)c1
> 300 nM: IC50 (second compound 0.1 µM) | IC50 (second compound 0.316 µM) | IC50 (second compound 1 µM)
inactive: viability, T/C (second compound 0.1 µM, first compound 0.000949 µM) 122% | viability, T/C (second compound 0.1 µM, first compound 0.003 µM) 126% | viability, T/C [31] 116% | viability, T/C [32] 101% | viability, T/C [33] 78.1% | viability, T/C [34] 73.5% | viability, T/C (second compound 0.316 µM, first compound 0.000949 µM) 134% | viability, T/C (second compound 0.316 µM, first compound 0.003 µM) 137% | viability, T/C [35] 122% | viability, T/C [36] 119% | viability, T/C [37] 98.1% | viability, T/C [38] 84% | viability, T/C (second compound 1 µM, first compound 0.000949 µM) 173% | viability, T/C (second compound 1 µM, first compound 0.003 µM) 162% | viability, T/C [39] 177% | viability, T/C [40] 129% | viability, T/C [41] 111% | viability, T/C [42] 96% | viability, T/C (second compound 3.16 µM, first compound 0.000949 µM) 28.2% | viability, T/C (second compound 3.16 µM, first compound 0.003 µM) 38.4% | viability, T/C [43] 43.5% | viability, T/C [44] 28.2% | viability, T/C [45] 29.9% | viability, T/C [46] 27.4% | viability, T/C (second compound 10 µM, first compound 0.000949 µM) 18.1% | viability, T/C (second compound 10 µM, first compound 0.003 µM) 28.5% | viability, T/C [47] 24.7% | viability, T/C [48] 12.8% | viability, T/C [49] 15.5% | viability, T/C [50] 18.5%
< 0.949 nM: IC50 (second compound 3.16 µM) | IC50 (second compound 10 µM)

O=C(C=Cn1cnc(-c2cc(C(F)(F)F)cc(C(F)(F)F)c2)n1)NNc1cnccn1 + Cc1cncc(-c2nc(NCCc3c[nH]c4ccccc34)c3ncn(C(C)C)c3n2)c1
209 nM: IC50 (second compound 0.1 µM)
196 nM: IC50 (second compound 3.16 µM)
inactive: viability, T/C [31] 93.8% | viability, T/C [32] 94.8% | viability, T/C [33] 73.2% | viability, T/C [34] 39.3% | viability, T/C (second compound 0.1 µM, first compound 0.949 µM) 27.4% | viability, T/C (second compound 0.1 µM, first compound 3 µM) 23.6% | viability, T/C [35] 90.8% | viability, T/C [36] 95.4% | viability, T/C [37] 72.6% | viability, T/C [38] 45.3% | viability, T/C (second compound 0.316 µM, first compound 0.949 µM) 29.2% | viability, T/C (second compound 0.316 µM, first compound 3 µM) 24.8% | viability, T/C [39] 116% | viability, T/C [40] 111% | viability, T/C [41] 79.6% | viability, T/C [42] 40.6% | viability, T/C (second compound 1 µM, first compound 0.949 µM) 26.4% | viability, T/C (second compound 1 µM, first compound 3 µM) 19.9% | viability, T/C [43] 94.9% | viability, T/C [44] 90.6% | viability, T/C [45] 74.7% | viability, T/C [46] 35.1% | viability, T/C (second compound 3.16 µM, first compound 0.949 µM) 25.1% | viability, T/C (second compound 3.16 µM, first compound 3 µM) 20.4% | viability, T/C [47] 9.12% | viability, T/C [48] 12.6% | viability, T/C [49] 17.1% | viability, T/C [50] 16.6% | viability, T/C (second compound 10 µM, first compound 0.949 µM) 15.1% | viability, T/C (second compound 10 µM, first compound 3 µM) 12.8%
< 9.49 nM: IC50 (second compound 10 µM)
242 nM: IC50 (second compound 0.316 µM)
229 nM: IC50 (second compound 1 µM)
